How the values were obtained:
Format in all cases: cell-based
MV4-11 = assay: Antiproliferative activity against tumor cells (CCK8), MV4-11; conditions: Homo sapiens, MV4-11 cells, 72 hours
Description: (§1) U937, MOLM-13, and MV4-11 cells (ATCC) in the logarithmic growth phase were separately diluted in a culture medium and plated onto 96-well plates at 5000 cells/well, and the plates were incubated in an incubator at 37 °C with 5% CO2 for 24 hours. 10 mM stock solutions of the compounds in DMSO were prepared and diluted with the culture medium to set 9 concentration gradients. Three replicate wells were set for each concentration. After compound addition, the plates were incubated in an incubator at 37 °C with 5% CO2 for 72 hours. The cell proliferation was assessed using the CCK8 method. The cell growth inhibition IC50 values of the compounds were determined using an enzyme labeling method. The IC50 values were calculated using GraphPad Prism 7 software.
(§2) The antiproliferative activity of the compounds against the tumor cells is shown in Table 3, where A represents IC50 < 1 nM, B represents 1 ≤ IC50 < 10 nM, C represents 10 nM ≤ IC50 < 100 nM, D represents 100 nM ≤ IC50 < 1000 nM, and E represents IC50 ≥ 1000 nM. Table 3. The antiproliferative activity of compounds against tumor cells

U937 = assay: Antiproliferative activity against tumor cells (CCK8), U937; conditions: Homo sapiens, U-937, 72 hours
Description: as §1, §2

KG-1 cells = assay: Antiproliferative activity against KG-1 cells (CCK8); conditions: 72 hours
Description: KG-1 cells in the logarithmic growth phase were diluted in a culture medium (RPMI + 10% FBS) and plated onto 96-well plates at 5000 cells/well, and the plates were incubated in an incubator at 37 °C with 5% CO2 for 24 hours. 10 mM stock solutions of the test compounds of the present disclosure in DMSO were prepared and diluted with the culture medium to set 9 concentration gradients. Three replicate wells were set for each concentration. After compound addition, the plates were incubated in an incubator at 37 °C with 5% CO2 for 72 hours. The cell proliferation was assessed using the CCK8 method. The cell growth inhibition IC50 values of the compounds were determined using an enzyme labeling method. The IC50 values were calculated using GraphPad Prism 7 software.
as §2, with “KG-1” for “the tumor”, “2,” for “3,”, “2.” for “3.”, “KG-1” for “tumor”

MOLM-13 = assay: Antiproliferative activity against tumor cells (CCK8), MOLM-13; conditions: Homo sapiens, MOLM-13 cells, 72 hours
Description: as §1, §2

GSPT1 protein = biological target: T1, GSPT1 protein (Homo sapiens, UniProt P15170+Q96SW2); assay: Degradation of GSPT1 in KG-1 cells (Western blot); conditions: KG-1 cells, compound concentration 200 nM, 4 hours
T1 construct: host or cells: KG-1 cells
T1 sequence (P15170 whole entry): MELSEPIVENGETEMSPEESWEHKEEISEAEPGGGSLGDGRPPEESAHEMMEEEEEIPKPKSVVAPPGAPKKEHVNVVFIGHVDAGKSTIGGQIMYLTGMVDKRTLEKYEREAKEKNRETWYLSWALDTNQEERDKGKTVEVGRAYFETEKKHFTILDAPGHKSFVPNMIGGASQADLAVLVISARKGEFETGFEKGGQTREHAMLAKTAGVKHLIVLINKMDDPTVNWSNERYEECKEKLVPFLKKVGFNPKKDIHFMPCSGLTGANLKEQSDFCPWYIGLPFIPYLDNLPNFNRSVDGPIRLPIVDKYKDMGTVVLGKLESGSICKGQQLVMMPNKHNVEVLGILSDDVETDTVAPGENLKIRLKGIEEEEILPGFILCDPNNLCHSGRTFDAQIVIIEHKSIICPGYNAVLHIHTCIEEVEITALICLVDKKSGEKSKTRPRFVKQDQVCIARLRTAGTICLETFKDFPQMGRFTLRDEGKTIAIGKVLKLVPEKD
T1 sequence (Q96SW2 whole entry): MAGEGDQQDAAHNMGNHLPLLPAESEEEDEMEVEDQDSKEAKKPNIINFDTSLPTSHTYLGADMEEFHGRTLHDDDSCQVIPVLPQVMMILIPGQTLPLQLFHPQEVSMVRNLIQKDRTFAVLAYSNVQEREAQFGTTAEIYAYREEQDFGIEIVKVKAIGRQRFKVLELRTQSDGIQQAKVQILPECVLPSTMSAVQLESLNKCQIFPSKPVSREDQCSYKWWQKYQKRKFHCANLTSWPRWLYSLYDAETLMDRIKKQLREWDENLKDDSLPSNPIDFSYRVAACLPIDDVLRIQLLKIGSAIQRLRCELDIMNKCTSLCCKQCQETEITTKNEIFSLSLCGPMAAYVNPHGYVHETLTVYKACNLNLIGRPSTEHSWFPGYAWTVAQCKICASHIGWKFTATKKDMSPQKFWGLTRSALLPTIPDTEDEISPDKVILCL
T1 sequence (Q16531 whole entry partner): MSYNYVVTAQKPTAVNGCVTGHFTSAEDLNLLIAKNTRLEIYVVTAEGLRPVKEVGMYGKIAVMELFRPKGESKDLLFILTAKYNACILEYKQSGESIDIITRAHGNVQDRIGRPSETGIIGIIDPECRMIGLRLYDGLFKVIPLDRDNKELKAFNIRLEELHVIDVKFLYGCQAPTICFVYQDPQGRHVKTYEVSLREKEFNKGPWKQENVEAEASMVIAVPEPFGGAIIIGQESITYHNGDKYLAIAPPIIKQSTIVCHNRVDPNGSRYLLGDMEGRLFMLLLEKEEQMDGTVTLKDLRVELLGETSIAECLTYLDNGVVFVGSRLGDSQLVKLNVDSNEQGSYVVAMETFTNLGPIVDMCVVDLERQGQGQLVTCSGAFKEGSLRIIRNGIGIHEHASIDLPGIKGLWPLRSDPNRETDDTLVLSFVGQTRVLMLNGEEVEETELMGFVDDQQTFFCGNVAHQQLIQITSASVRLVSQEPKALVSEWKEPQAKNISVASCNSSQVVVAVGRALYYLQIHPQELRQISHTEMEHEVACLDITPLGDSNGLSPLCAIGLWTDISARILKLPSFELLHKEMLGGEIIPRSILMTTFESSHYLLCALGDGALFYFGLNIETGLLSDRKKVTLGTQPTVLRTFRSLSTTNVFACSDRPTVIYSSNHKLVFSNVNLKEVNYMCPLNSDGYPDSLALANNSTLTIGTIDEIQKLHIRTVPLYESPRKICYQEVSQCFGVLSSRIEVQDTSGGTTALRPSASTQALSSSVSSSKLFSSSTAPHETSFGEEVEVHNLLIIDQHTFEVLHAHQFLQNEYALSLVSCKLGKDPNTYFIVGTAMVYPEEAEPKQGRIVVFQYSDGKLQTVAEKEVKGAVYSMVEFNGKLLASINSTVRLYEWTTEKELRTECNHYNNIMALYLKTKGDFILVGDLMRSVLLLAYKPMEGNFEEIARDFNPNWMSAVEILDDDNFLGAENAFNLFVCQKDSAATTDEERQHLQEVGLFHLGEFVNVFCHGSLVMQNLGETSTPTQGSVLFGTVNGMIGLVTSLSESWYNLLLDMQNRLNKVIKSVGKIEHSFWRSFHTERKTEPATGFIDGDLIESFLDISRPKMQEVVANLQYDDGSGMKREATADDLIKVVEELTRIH
Description: KG-1 cells (ATCC) were grown in an IMDM culture medium (containing 20% FBS). After centrifugation and counting, the cell concentration was adjusted. The cells were plated onto 6-well plates at 10^6 cells/well, with 1350 µL per well. 150 µL of DMSO and the test compounds of the present disclosure (compound concentration: 200 nM) were added. The plates were incubated in an incubator at 37 °C with 5% CO2 for 4 hours. The cells were centrifuged, and the culture medium was discarded. PBS was added to wash the cells and then discarded. Whole cell lysates were prepared using a protease inhibitor cocktail (100×, Fude Biological), a protein phosphatase inhibitor cocktail (100×, Fude Biological), SuperNuclease (Beyotime), and a high-intensity RIPA lysis buffer (Thermo Fisher) and placed on ice for 30 minutes. After centrifugation, the cell debris precipitates were discarded, and the whole cell lysate supernatants were collected and transferred to new centrifuge tubes. After a BCA protein assay, samples were prepared using a 5× loading buffer (Thermo Fisher). The samples were subjected to protein electrophoresis separation in a 4-20% precast gel (SDS-PAGE gel), transferred to a PVDF membrane, then blocked with 5% NFDM/TBST at room temperature for 1 hour, incubated overnight with primary antibodies at 4 °C, and incubated with a secondary antibody at room temperature for 2 hours the next day. Signals were detected using a MINICHEMITM imaging system.
Primary antibodies: • Anti-GSPT1: Abcam ab234433 • Anti-beta actin: Fude Biological FD0060
Secondary antibody: Anti-rabbit peroxidase-linked secondary antibody: Fude Biological FDG007
The degradation effects of the compounds on GSPT1 protein are shown in Table 1, where A represents a GSPT1 protein degradation percentage of no less than 80%, B represents a degradation percentage of less than 80% but no less than 50%, C represents a degradation percentage of less than 50% but no less than 25%, and D represents a degradation percentage of less than 25%. Table 1. The degradation of GSPT1 protein by compounds

Row | Structure (SMILES) | percent GSPT1 degradation at 0.2 µM (GSPT1 protein) | IC50 (KG-1 cells; Homo sapiens) | also measured
1 | O=C1CCC(N2Cc3cc(CNC(=O)C4CNc5ccccc5C4)ccc3C2=O)C(=O)N1 (stereo not drawn) [Compound C-1, N-((2-(2,6-Dioxopiperidin-3-yl)-1-oxoisoindolin-5-yl)methyl)-1,2,3,4-tetrahydroquinoline-3-carboxamide] | > 80% | 1 to 10 nM | IC50 (MV4-11): 10 to 100 nM; IC50 (U937): 10 to 100 nM; IC50 (MOLM-13): 10 to 100 nM
2 | Nc1ccc2c(c1)C=C(C(=O)NCc1ccc3c(c1)CN(C1CCC(=O)NC1=O)C3=O)CO2 (stereo not drawn) [Compound A-12, N-((2-(2,6-Dioxopiperidin-3-yl)-1-oxoisoindolin-5-yl)methyl)-6-amino-2H-chromene-3-carboxamide] | > 80% | 10 to 100 nM | –
3 | O=C1CCC(N2Cc3ccc(CNC(=O)C4=Cc5cc(OC(F)(F)F)ccc5OC4)cc3C2=O)C(=O)N1 (stereo not drawn) [Compound A-40, N-((2-(2,6-Dioxopiperidin-3-yl)-3-oxoisoindolin-5-yl)methyl)-6-(trifluoromethoxy)-2H-chromene-3-carboxamide] | 50 to 80% | 10 to 100 nM | –
4 | O=C1CCC(N2Cc3cc(CNC(=O)C4=Cc5ccc(F)cc5OC4)ccc3C2=O)C(=O)N1 (stereo not drawn) [Compound A-4, N-((2-(2,6-Dioxopiperidin-3-yl)-1-oxoisoindolin-5-yl)methyl)-7-fluoro-2H-chromene-3-carboxamide] | 50 to 80% | 10 to 100 nM | –
5 | O=C1CCC(N2Cc3cc(CNC(=O)C4=Cc5c(F)cc(F)cc5OC4)ccc3C2=O)C(=O)N1 (stereo not drawn) [Compound A-34, N-((2-(2,6-Dioxopiperidin-3-yl)-1-oxoisoindolin-5-yl)methyl)-5,7-difluoro-2H-chromene-3-carboxamide] | > 80% | 1 to 10 nM | –
6 | CC(C)(C)c1ccc2c(c1)C=C(C(=O)NCc1ccc3c(c1)CN(C1CCC(=O)NC1=O)C3=O)CO2 (stereo not drawn) [Compound A-16, N-((2-(2,6-Dioxopiperidin-3-yl)-1-oxoisoindolin-5-yl)methyl)-6-tert-butyl-2H-chromene-3-carboxamide] | 50 to 80% | 10 to 100 nM | –
7 | O=C1CCC(N2Cc3cc(CNC(=O)C4=Cc5c(F)cccc5OC4)ccc3C2=O)C(=O)N1 (stereo not drawn) [Compound A-2, N-((2-(2,6-Dioxopiperidin-3-yl)-1-oxoisoindolin-5-yl)methyl)-5-fluoro-2H-chromene-3-carboxamide] | > 80% | 10 to 100 nM | –
8 | CC(=O)Nc1ccc2c(c1)C=C(C(=O)NCc1ccc3c(c1)CN(C1CCC(=O)NC1=O)C3=O)CO2 (stereo not drawn) [Compound A-23, N-((2-(2,6-Dioxopiperidin-3-yl)-1-oxoisoindolin-5-yl)methyl)-6-(acetamido)-2H-chromene-3-carboxamide] | 25 to 50% | ≥ 1000 nM | –
9 | Cc1cc2c(cc1Cl)C=C(C(=O)NCc1ccc3c(c1)CN(C1CCC(=O)NC1=O)C3=O)CO2 (stereo not drawn) [Compound A-28] | – | – | IC50 (KG-1 cells): 10 to 100 nM; GSPT1 degradation (GSPT1 protein): A (a GSPT1 protein degradation percentage of no less than 80%)
10 | O=C1CCC(N2Cc3cc(CNC(=O)C4=Cc5cc(NC(=O)C6CCC6)ccc5OC4)ccc3C2=O)C(=O)N1 (stereo not drawn) [Compound A-27, N-((2-(2,6-Dioxopiperidin-3-yl)-1-oxoisoindolin-5-yl)methyl)-6-(cyclobutanecarboxamido)-2H-chromene-3-carboxamide] | < 25% | 100 to 1000 nM | –
11 | C#Cc1ccc2c(c1)C=C(C(=O)NCc1ccc3c(c1)CN(C1CCC(=O)NC1=O)C3=O)CO2 (stereo not drawn) [Compound A-15, N-((2-(2,6-Dioxopiperidin-3-yl)-1-oxoisoindolin-5-yl)methyl)-6-ethynyl-2H-chromene-3-carboxamide] | 50 to 80% | 100 to 1000 nM | –
12 | COc1cccc2c1C=C(C(=O)NCc1ccc3c(c1)CN(C1CCC(=O)NC1=O)C3=O)CO2 (stereo not drawn) [Compound A-9, N-((2-(2,6-Dioxopiperidin-3-yl)-1-oxoisoindolin-5-yl)methyl)-5-methoxy-2H-chromene-3-carboxamide] | > 80% | 1 to 10 nM | –

Now from value to compound, other results behind:

Row | percent GSPT1 degradation at 0.2 µM (GSPT1 protein) | Structure (SMILES) | IC50 (KG-1 cells; Homo sapiens) | also measured
13 | > 80% | O=C1CCC(N2Cc3cc(CNC(=O)C4COc5ccc(OC(F)(F)F)cc5C4)ccc3C2=O)C(=O)N1 (stereo not drawn) [Compound B-4, N-((2-(2,6-Dioxopiperidin-3-yl)-1-oxoisoindolin-5-yl)methyl)-6-(trifluoromethoxy)chromane-3-carboxamide] | < 1 nM | IC50 (MV4-11): < 1 nM; IC50 (U937): 1 to 10 nM; IC50 (MOLM-13): 1 to 10 nM
14 | > 80% | Cc1ccc2c(c1)C=C(C(=O)NCc1ccc3c(c1)CN(C1CCC(=O)NC1=O)C3=O)CO2 (stereo not drawn) [Compound A-7, N-((2-(2,6-Dioxopiperidin-3-yl)-1-oxoisoindolin-5-yl)methyl)-6-methyl-2H-chromene-3-carboxamide] | 1 to 10 nM | –
15 | 50 to 80% | COc1ccc2c(c1)C=C(C(=O)NCc1ccc3c(c1)CN(C1CCC(=O)NC1=O)C3=O)CO2 (stereo not drawn) [Compound A-8, N-((2-(2,6-Dioxopiperidin-3-yl)-1-oxoisoindolin-5-yl)methyl)-6-methoxy-2H-chromene-3-carboxamide] | 10 to 100 nM | –
16 | > 80% | O=C1CCC(N2Cc3cc(CNC(=O)C4=Cc5cccc(OC(F)(F)F)c5OC4)ccc3C2=O)C(=O)N1 (stereo not drawn) [Compound A-19, N-((2-(2,6-Dioxopiperidin-3-yl)-1-oxoisoindolin-5-yl)methyl)-8-trifluoromethoxy-2H-chromene-3-carboxamide] | 1 to 10 nM | –
17 | > 80% | Cc1cccc2c1OCC(C(=O)NCc1ccc3c(c1)CN(C1CCC(=O)NC1=O)C3=O)=C2 (stereo not drawn) [Compound A-21, N-((2-(2,6-Dioxopiperidin-3-yl)-1-oxoisoindolin-5-yl)methyl)-8-methyl-2H-chromene-3-carboxamide] | 1 to 10 nM | –
18 | > 80% | Cc1ccc(C)c2c1C=C(C(=O)NCc1ccc3c(c1)CN(C1CCC(=O)NC1=O)C3=O)CO2 (stereo not drawn) [Compound A-38, N-((2-(2,6-Dioxopiperidin-3-yl)-1-oxoisoindolin-5-yl)methyl)-5,8-dimethyl-2H-chromene-3-carboxamide] | 10 to 100 nM | –
19 | 50 to 80% | O=C1CCC(N2Cc3cc(CNC(=O)C4=Cc5cc(-c6ccccc6)ccc5OC4)ccc3C2=O)C(=O)N1 (stereo not drawn) [Compound A-17, N-((2-(2,6-Dioxopiperidin-3-yl)-1-oxoisoindolin-5-yl)methyl)-6-phenyl-2H-chromene-3-carboxamide] | 100 to 1000 nM | –
20 | > 80% | Cc1cc(F)cc2c1OCC(C(=O)NCc1ccc3c(c1)CN(C1CCC(=O)NC1=O)C3=O)=C2 (stereo not drawn) [Compound A-31, N-((2-(2,6-Dioxopiperidin-3-yl)-1-oxoisoindolin-5-yl)methyl)-6-fluoro-8-methyl-2H-chromene-3-carboxamide] | 1 to 10 nM | –
21 | > 80% | COc1cccc2c1OCC(C(=O)NCc1ccc3c(c1)CN(C1CCC(=O)NC1=O)C3=O)=C2 (stereo not drawn) [Compound A-20, N-((2-(2,6-Dioxopiperidin-3-yl)-1-oxoisoindolin-5-yl)methyl)-8-methoxy-2H-chromene-3-carboxamide] | 1 to 10 nM | –

From patent EP4703358A1, “BENZO SIX-MEMBERED HETEROCYCLIC GSPT1 PROTEIN DEGRADATION AGENT AND USE THEREOF” (China Pharmaceutical University, priority 2023, dated 2024)
